Test results taken from ChEMBL document CHEMBL5226291, “The race to treat COVID-19: Potential therapeutic agents for the prevention and treatment of SARS-CoV-2” (Eur J Med Chem, 2021).
≈ marks a conversion by molar mass, not a printed value. Square brackets hold non-standard residues; d marks the D form. Peptide text beside a SMILES is read from it. * marks the point of attachment. ξ: configuration not given here. Decanoyl = CCCCCCCCCC(=O)*; ξF = NC(Cc1ccccc1)C(=O)O; Cbz = O=C(OCc1ccccc1)*; CH2Cl = ClC*

How the values were obtained:
SARS-CoV [1] = format: functional, organism-based; details: Severe acute respiratory syndrome-related coronavirus, Vero C1008
[2] = tested on: Middle East respiratory syndrome-related coronavirus; test: Antiviral activity against recombinant MERS-CoV pseudovirus infected in Huh-7 cells assessed as inhibition of viral replication measured after 72 hrs by luminometer; format: functional, organism-based; details: Huh-7, 72 h
[3] = Cytotoxicity against human Huh-7 cells incubated for 3 days by XTT assay; format: toxicity, cell-based; details: time 3 day
[4] = Selectivity index. ratio of CC50 for cytotoxicity against human Huh-7 cells to IC50 for antiviral activity against MERS-CoV pseudovirus infected in Huh-7; format: toxicity, cell-based; details: read-out: Ratio CC50/IC50
[5] = Cytotoxicity against human HEK293T cells by XTT assay; format: toxicity, cell-based, HEK-293T
SARS-CoV [6] = format: functional, organism-based; details: Severe acute respiratory syndrome-related coronavirus, HEK-293T, 48 h
Procathepsin L [7] = target: T1, Procathepsin L (Homo sapiens, UniProt P07711); test: Inhibition of recombinant Cathepsin L (unknown origin) using Z-Phe-Arg-AMC as substrate by fluorometric assay
SARS-CoV [8] = format: functional, organism-based; details: Severe acute respiratory syndrome-related coronavirus, Vero C1008, 48 h
[9] = Cytotoxicity against African green monkey Vero E6 cells by CCK-8 assay; format: toxicity, cell-based, Vero C1008; details: chlorocebus sabaeus
[10] = tested on: Middle East respiratory syndrome-related coronavirus; test: Antiviral activity against wild type MERS-CoV infected in HEK293T/17 cells assessed as inhibition of viral replication by immunoblotting assay; format: functional, organism-based
SARS-CoV [11] = test: Antiviral activity against SARS-CoV infected in HeLa cells expressing human TMPRSS2 assessed as inhibition of viral replication measured after 20 hrs by fluorescence microscopy; format: functional, organism-based; details: Severe acute respiratory syndrome-related coronavirus
SARS-CoV [12] = test: Antiviral activity against SARS-CoV infected in HeLa cells expressing human TMPRSS2 assessed as inhibition of viral replication at 100 uM measured after 20 hrs by fluorescence microscopy; format: functional; details: Severe acute respiratory syndrome-related coronavirus
SARS-CoV [13] = test: Antiviral activity against SARS-CoV infected in HeLa cells expressing human TMPRSS2 assessed as inhibition of viral replication at 10 uM measured after 20 hrs in presence of EST by fluorescence microscopy; format: functional; details: Severe acute respiratory syndrome-related coronavirus
[14] = Cytotoxicity against African green monkey Vero E6 cells by MTT assay; format: toxicity, cell-based, Vero C1008; details: chlorocebus sabaeus
[15] = target: Replicase polyprotein 1ab (Severe acute respiratory syndrome coronavirus 2, UniProt P0DTD1); test: Inhibition of SARS-COV2 main protease using Mca-AVLQ-SGFR-K as substrate by Fluorescence microplate reader assay
[16] = target: Replicase polyprotein 1ab (Severe acute respiratory syndrome coronavirus 2) (UniProt P0DTD1); test: Inhibition of recombinant SARS-COV2 main protease using Mca-AVLQ-SGFR-Lys-NH2 as substrate at 1 uM by FRET based cleavage assay
SARS-CoV [17] = format: functional, organism-based; details: Severe acute respiratory syndrome-related coronavirus, BJ01, Vero C1008, 64 h
[18] = Selectivity index. ratio of CC50 for cytotoxicity against African green monkey Vero E6 cells to EC50 for antiviral activity against wild type SARS-CoV BJ01 infected in Vero E6 cells; format: toxicity, cell-based, Vero C1008; details: read-out: Ratio CC50/EC50
[19] = Antiviral activity against Human coronavirus NL63 infected in HEK293T cells expressing human ACE2 assessed as inhibition of viral replication incubated for 2 days by Dual-Glo luciferase assay; format: functional, cell-based; details: Human coronavirus NL63, HEK-293T, 48 h
[20] = tested on: Middle East respiratory syndrome-related coronavirus; test: Antiviral activity against recombinant MERS-CoV pseudovirus infected in Vero cells assessed as inhibition of viral replication incubated for 2 days by Dual-Glo luciferase assay; format: functional, organism-based; details: 48 h
[21] = Cytotoxicity against human HEK293T cells; format: toxicity, cell-based, HEK-293T
SARS-CoV-2 [22] = format: functional; details: Severe acute respiratory syndrome coronavirus 2, Vero C1008; time 18 hrs; read-out: ED50 (the source's name)
SARS-CoV-2 [23] = format: functional, organism-based; details: Severe acute respiratory syndrome coronavirus 2, Vero C1008, 48 h
SARS-CoV-2 [24] = format: functional, organism-based; details: Severe acute respiratory syndrome coronavirus 2, Vero C1008, 48 h; remark: listed apart in the source
SARS-CoV-2 [25] = format: functional, organism-based; details: Severe acute respiratory syndrome coronavirus 2, Vero C1008, 96 h
SARS-CoV [26] = test: Antiviral activity against SARS-CoV infected in HEK293T cells assessed as reduction in viral replication incubated for 7 hrs by luciferase assay; format: functional, organism-based; details: Severe acute respiratory syndrome-related coronavirus, HEK-293T
Ebolavirus [27] = test: Antiviral activity against Ebolavirus infected in HEK293T cells assessed as reduction in viral replication incubated for 7 hrs by luciferase assay; format: functional, organism-based; details: Orthoebolavirus, HEK-293T
Procathepsin L [28] = target: T1, Procathepsin L; test: Inhibition of human liver Cathepsin L using Z-Phe-Arg-AMC as substrate incubated for 30 mins by fluorometric assay
[29] = target: Disintegrin and metalloproteinase domain-containing protein 17 (Mus musculus, UniProt Q9Z0F8); test: Inhibition of mouse ADAM17 expressed in HEK293 cells overexpressed with ACE2 assessed as inhibition of ACE2 shedding incubated for 65 mins in presence of PMA by immunoblotting assay; format: cell-based
SARS-CoV [30] = test: Antiviral activity against SARS-CoV infected in HEK293 cells expressing human ACE2 assessed as inhibition of viral replication measured after 40 hrs by luciferase assay; format: functional, organism-based; details: Severe acute respiratory syndrome-related coronavirus, HEK293, 40 h
Zika virus = test: Antiviral activity against Zika virus MR766 infected in Vero cells assessed as reduction in viral replication by plaque reduction assay; format: functional, organism-based
Ebolavirus [31] = format: functional, organism-based; details: Orthoebolavirus, Vero C1008, 120 h

T1 sequence (P07711 whole entry): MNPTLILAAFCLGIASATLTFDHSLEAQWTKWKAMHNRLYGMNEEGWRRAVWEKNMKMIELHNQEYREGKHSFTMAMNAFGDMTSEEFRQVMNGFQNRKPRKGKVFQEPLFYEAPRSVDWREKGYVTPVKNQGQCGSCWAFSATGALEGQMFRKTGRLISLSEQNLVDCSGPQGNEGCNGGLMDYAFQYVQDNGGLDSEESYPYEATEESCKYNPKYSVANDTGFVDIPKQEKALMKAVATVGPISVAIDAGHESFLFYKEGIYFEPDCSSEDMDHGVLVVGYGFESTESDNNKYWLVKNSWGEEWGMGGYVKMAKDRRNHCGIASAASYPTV
Sequence of Disintegrin and metalloproteinase domain-containing protein 17 (Q9Z0F8 whole entry, the tested form may be a part): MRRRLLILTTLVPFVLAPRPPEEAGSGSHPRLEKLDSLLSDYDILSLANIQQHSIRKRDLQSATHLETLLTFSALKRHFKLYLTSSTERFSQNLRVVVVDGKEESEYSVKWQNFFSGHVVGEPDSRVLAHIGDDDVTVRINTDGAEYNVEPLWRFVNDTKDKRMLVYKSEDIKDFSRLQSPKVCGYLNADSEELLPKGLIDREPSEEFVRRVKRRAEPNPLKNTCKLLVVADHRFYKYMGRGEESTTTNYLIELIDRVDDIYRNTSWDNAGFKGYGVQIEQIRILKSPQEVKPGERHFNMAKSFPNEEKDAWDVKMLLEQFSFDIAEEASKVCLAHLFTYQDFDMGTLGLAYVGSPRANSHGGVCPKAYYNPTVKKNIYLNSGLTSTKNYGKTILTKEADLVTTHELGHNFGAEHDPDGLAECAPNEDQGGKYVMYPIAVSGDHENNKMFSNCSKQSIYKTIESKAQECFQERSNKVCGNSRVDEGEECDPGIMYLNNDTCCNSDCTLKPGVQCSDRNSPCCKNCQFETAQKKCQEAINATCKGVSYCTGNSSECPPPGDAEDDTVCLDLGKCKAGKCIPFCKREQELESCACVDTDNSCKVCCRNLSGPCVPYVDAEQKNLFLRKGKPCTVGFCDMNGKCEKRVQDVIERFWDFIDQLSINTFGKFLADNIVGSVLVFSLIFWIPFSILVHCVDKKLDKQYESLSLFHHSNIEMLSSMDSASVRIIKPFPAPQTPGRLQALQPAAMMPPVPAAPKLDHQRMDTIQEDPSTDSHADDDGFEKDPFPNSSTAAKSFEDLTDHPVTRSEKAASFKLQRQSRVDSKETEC

## COc1ccc(S(=O)(=O)O)cc1/N=N/c1c(S(=O)(=O)O)cc2cc(Nc3nc(Nc4ccccc4)nc(Nc4cc(C)c(/N=N/c5cc(S(=O)(=O)O)cc6cc(S(=O)(=O)O)cc(O)c56)cc4OC)n3)ccc2c1O
SARS-CoV [1]
  IC50: 3.89 µM
[2]
  IC50: 0.6 µM
[3]
  CC50 at 72 h: 26.9 µM
[4]
  selectivity ratio: 45

## CN1CCN(c2ccc(CNC(=O)c3ccno3)cc2)CC1
[5]
  CC50: > 100 µM

## C/C(=N\NC(N)=S)c1cccs1
SARS-CoV [6]
  EC50: 6.4 µM
[5]
  CC50: < 100 µM
Procathepsin L [7]
  IC50: 5.33 µM

## CCC(CC)COC(=O)[C@H](C)N[P@](=O)(OC[C@H]1O[C@@](C#N)(c2ccc3c(N)ncnn23)[C@H](O)[C@@H]1O)Oc1ccccc1
SARS-CoV [8]
  EC50: 0.069 µM

## Nc1nc2c(ncn2CCC(CO)CO)c(=O)[nH]1 [PENCICLOVIR]
[9]
  CC50: > 400 µM
SARS-CoV [8]
  EC50: 96 µM

## CCCCCCCCCC(=O)N[C@@H](CCCNC(=N)N)C(=O)N[C@H](C(=O)N[C@@H](CCCCN)C(=O)N[C@@H](CCCNC(=N)N)C(=O)CCl)C(C)C (Decanoyl-RVKR-CH2Cl)
[10]
  IC50: 75 µM

## CN(C)C(=O)COC(=O)Cc1ccc(OC(=O)c2ccc(NC(=N)N)cc2)cc1 [CAMOSTAT]
SARS-CoV [11]
  IC50: 10 µM
SARS-CoV [12]
  inhibition at 100 µM: 65%
SARS-CoV [13]
  inhibition at 10 µM: > 95%

## NC(=O)c1ncn([C@@H]2O[C@H](CO)[C@@H](O)[C@H]2O)n1 [RIBAVIRIN]
[9]
  CC50: > 400 µM

## O=c1c(O)c(-c2ccc(O)c(O)c2)oc2cc(O)cc(O)c12 [QUERCETIN]
[14]
  CC50: 3.32 µM

## Cn1sc(=O)n(Cc2ccccc2)c1=O
[15]
  IC50: 2.5 µM

## O=C[C@H](C[C@@H]1CCNC1=O)NC(=O)[C@H](Cc1cccc(F)c1)NC(=O)c1cc2ccccc2[nH]1
[9]
  CC50: > 100 µM
[16]
  inhibition: 86%

## O=C(OC[C@H]1O[C@@H](OC(=O)c2cc(O)c(O)c(O)c2)[C@H](OC(=O)c2cc(O)c(O)c(O)c2)[C@H](OC(=O)c2cc(O)c(O)c(O)c2)[C@@H]1O)c1cc(O)c(O)c(O)c1
SARS-CoV [17]
  EC50: 4.5 µM
[14]
  CC50: 1.08 µM
[18]
  selectivity ratio: 240

## CN1CCN(C(=O)N[C@@H](Cc2ccccc2)C(=O)N[C@H](/C=C/S(=O)(=O)c2ccccc2)CCc2ccccc2)CC1 [K-777]
[19]
  IC50: < 0.007 µM
[20]
  IC50: 0.046 µM
[21]
  CC50: > 10 µM

## CCN(CC)CCCC(C)Nc1ccnc2cc(Cl)ccc12 (stereo unspecified) [CHLOROQUINE]
SARS-CoV-2 [22]
  EC50: 4.4 µM
SARS-CoV-2 [23]
  EC50: 1.13 µM
[9]
  CC50: > 100 µM

## CCN(CCO)CCCC(C)Nc1ccnc2cc(Cl)ccc12 (stereo unspecified) [HYDROXYCHLOROQUINE]
SARS-CoV-2 [24]
  EC50: 0.72 µM

## Cc1cc(C(=O)N[C@@H](C)C(=O)N[C@H](C(=O)N[C@@H](CC(C)C)C(=O)N[C@H](/C=C\C(=O)OCc2ccccc2)C[C@@H]2CCNC2=O)C(C)C)no1
SARS-CoV-2 [25]
  EC50: 16.8 µM

## CC(C)(C)OC(=O)N[C@@H](Cc1c[nH]c2ccccc12)C(=O)NNC(=O)OCC(=O)N1CCCc2ccccc21
SARS-CoV [26]
  IC50: 273 µM
Ebolavirus [27]
  IC50: 193 µM
Procathepsin L [28]
  IC50: 6.9 µM

## O=c1cc(-c2ccc(O)c(O)c2)oc2cc(O)cc(O)c12 [LUTEOLIN]
SARS-CoV [17]
  EC50: 10.6 µM
[14]
  CC50: 0.155 µM
[18]
  selectivity ratio: 14.6

## CC(C)CC(CC(=O)NO)C(=O)N[C@H](C(=O)N[C@@H](C)C(=O)NCCN)C(C)(C)C (stereo partly specified)
[29]
  IC50: 0.2 µM

## O=C[C@H](C[C@@H]1CCNC1=O)NC(=O)[C@H](CC1CCCCC1)NC(=O)c1cc2ccccc2[nH]1
[9]
  CC50: > 100 µM
[16]
  inhibition: 100%

## Cc1cccc(C)c1OCC(=O)N[C@@H](Cc1ccccc1)[C@@H](O)C[C@H](Cc1ccccc1)NC(=O)[C@H](C(C)C)N1CCCNC1=O [LOPINAVIR]
SARS-CoV-2 [23]
  EC50: 26.1 µM

## CC(C)[C@H](NC(=O)OCc1ccccc1)C(=O)NC(C=O)Cc1ccccc1 (stereo partly drawn) (Cbz-Val-[ξF]-aldehyde)
SARS-CoV [30]
  EC50: 0.1 µM

## CC(C)C[C@H](CC(=O)NO)C(=O)N[C@@H](Cc1ccc2ccccc2c1)C(=O)N[C@@H](C)C(N)=O
[29]
  IC50: 0.1 µM

## NC(=O)c1nc(F)cnc1O
[9]
  CC50: > 400 µM
Zika virus
  EC50: 3.5 µg/mL (≈ 22.3 µM)
Ebolavirus [31]
  EC50: 10.5 µg/mL (≈ 66.8 µM)
